In brackets after ≈: the same amount, converted by molar mass. Where two headings read alike, the source gives them in different places.
What was measured:
L100 S. aureus ATCC6538P = assay: MIC, broth microdilution (CLSI); assay type: cell-based; conditions: Staphylococcus aureus
Procedure: (§1) Antibacterial activity. […] Each bacterial strain was inoculated with 2-5×10^5 CFU/ml, Candida albicans with 10^4 CFU/ml. Cultures were incubated at 35°C in air. After 18-24 hours visual readings were performed and MICs (Minimal Inhibitory Concentrations) determined. The effect of 30% bovine serum was determined under the same experimental conditions. The strains used were clinical isolates or strains from American Type Culture Collection (ATCC).

L1400 S. aureus HA-MRSA = assay: MIC, broth microdilution (CLSI); assay type: cell-based; conditions: Staphylococcus aureus
Procedure: as §1

L1577 S. epidermidis = assay: MIC, broth microdilution (CLSI); assay type: cell-based; conditions: Staphylococcus epidermidis
Procedure: as §1

[1] = test system: L1729 S. haemolyticus MDR; assay: MIC, broth microdilution (CLSI); assay type: cell-based; conditions: Staphylococcus haemolyticus
Procedure: as §1

L1730 S. haemolyticus = assay: MIC, broth microdilution (CLSI); assay type: cell-based; conditions: Staphylococcus haemolyticus
Procedure: as §1

[2] = test system: L4061 S. aureus MRSA - GISA; assay: MIC, broth microdilution (CLSI); assay type: cell-based; conditions: Staphylococcus aureus; L4061 S. aureus MRSA - GISA; cation-adjusted Mueller Hinton Broth, 35°C, 18-24 hours; read-out: MIC
Procedure: as §1

L44 S. pneumoniae = assay: MIC, broth microdilution (CLSI); assay type: cell-based; conditions: Streptococcus pneumoniae
Procedure: as §1

L47 E. coli = assay: MIC, broth microdilution (CLSI); assay type: cell-based; conditions: Escherichia coli
Procedure: as §1

L49 S. pyogenes C203 = assay: MIC, broth microdilution (CLSI); assay type: cell-based; conditions: Streptococcus pyogenes
Procedure: as §1

L559 E. faecalis = assay: MIC, broth microdilution (CLSI); assay type: cell-based; conditions: Enterococcus faecalis
Procedure: as §1

L560 E. faecalis VanA = assay: MIC, broth microdilution (CLSI); assay type: cell-based; conditions: Enterococcus faecalis
Procedure: as §1

L568 E. faecium = assay: MIC, broth microdilution (CLSI); assay type: cell-based; conditions: Enterococcus faecium
Procedure: as §1

L569 E. faecium VanA = assay: MIC, broth microdilution (CLSI); assay type: cell-based; conditions: Enterococcus faecium
Procedure: as §1

L819 S. aureus Smith = assay: MIC, broth microdilution (CLSI); assay type: cell-based; conditions: Staphylococcus aureus
Procedure: as §1

[3] = test system: VA80201 S. aureus CA-MRSA; assay: MIC, broth microdilution (CLSI); assay type: cell-based; conditions: Staphylococcus aureus; VA80201 S. aureus CA-MRSA; cation-adjusted Mueller Hinton Broth, 35°C, 18-24 hours; read-out: MIC
Procedure: as §1

[4] = test system: VA8101 S. agalactiae (Group B); assay: MIC, broth microdilution (CLSI); assay type: cell-based; conditions: Streptococcus agalactiae; VA8101 S. agalactiae (Group B); Todd Hewitt medium, 35°C, 18-24 hours; read-out: MIC
Procedure: as §1

[5] = test system: L4187 E. faecium VanA - Lnz R - Cpx R; assay: microbe, parasite or virus in culture; assay type: cell-based; conditions: Enterococcus faecium; L4187 E. faecium VanA - Lnz R - Cpx R; cation-adjusted Mueller Hinton Broth, 35°C, 18-24 hours; read-out: MIC
Procedure: as §1

VA645601 B. clausii = assay: MIC, broth microdilution (CLSI); assay type: cell-based; conditions: Shouchella clausii, 35°C, 18-24 hours
Procedure: (§2) Antibacterial activity. The antimicrobial activity of the antibiotic 103/33-F710 was determined by the broth microdilution method according to the procedures published by the Clinical and Laboratory Standards Institute (CLSI), formerly the National Committee for Clinical Laboratory Standards (NCCLS) (document M07-A9). Microorganisms were grown in either cation-adjusted Mueller Hinton Broth (Staphylococci, Enterococci, Moraxella catarrhalis, Escherichia coli), Todd Hewitt medium (Streptococci) or RPMI 1640 medium for Candida albicans on 96-well microtiter plates. Each bacterial strain was inoculated with 2-5×10^5 CFU/ml, Candida albicans with 10^4 CFU/ml. Cultures were incubated at 35°C in air. After 18-24 hours visual readings were performed and MICs (Minimal Inhibitory Concentrations) determined. The effect of 30% bovine serum was determined under the same experimental conditions. The strains used were clinical isolates or strains from American Type Culture Collection (ATCC). The antibiotic 103/33-F710 was dissolved in DMSO to obtain a 1000 µg/ml stock solution, and subsequently diluted in water to obtain working solution. Table 5: Antimicrobial activity reported as MIC (µg/ml) of ID103/33-F710

[6] = test system: VA801801 L. monocytogenes; assay: MIC, broth microdilution (CLSI); assay type: cell-based; conditions: Listeria monocytogenes, 35°C, 18-24 hours
Procedure: as §2

VA827901 B. cereus = assay: MIC, broth microdilution (CLSI); assay type: cell-based; conditions: Bacillus cereus, 35°C, 18-24 hours
Procedure: as §2

L145 C. albicans = assay: MIC, broth microdilution (CLSI); assay type: cell-based; conditions: Candida albicans
Procedure: as §2
Antibacterial activity. The antimicrobial activity of the antibiotic 103/33-F696 was determined by the broth microdilution method according to the procedures disclosed in Example 7. Table 6: Antimicrobial activity reported as MIC (µg/ml) of compound 2 (103/33-F696)
Antibacterial activity. The antimicrobial activity of the antibiotic 103/33-F712 was determined by the broth microdilution method according to the procedures disclosed in Example 7. Table 7: Antimicrobial activity reported as MIC (µg/ml) of ID103/33-F712

[7] = test system: Hela cells from cervix adenocarcinoma; assay: Cytotoxicity against human cells; assay type: cell-based; conditions: at 200 µg/ml
[8] = test system: HepG2 cells from hepatocarcinoma; assay: Cytotoxicity against human cells; assay type: cell-based; conditions: at 200 µg/ml, the highest concentration tested
[9] = test system: BJ5TA - ATCC CRL-4401 normal fibroblast; assay: Cytotoxicity against human cells; assay type: cell-based; conditions: at 200 µg/ml, the highest concentration tested
human erythrocytes = assay: Hemolytic activity; assay type: cell-based
[10] = test system: Staphylococcus aureus Smith 819 ATCC 19636; assay: Murine septicemia model; assay type: in vivo; conditions: ATCC19636, intravenous administrations
From the text: Effectiveness. […] This level of protection was observed after intravenous administrations.

Solubility = assay type: physicochemical
Procedure: (§3) Solubility of compound 1 (103/33 F-710) was poor in most low to medium- polarity organic solvents, as well as in water from acidic to neutral pH; it was more soluble at basic pH and stable up to pH 8-9, while in alcohols it ranged between 5-10 mg/ml. […] Some crystallizations trials were performed on compound 1 (103/33 F-710) in order to obtain suitable crystals for the X-ray structural characterization.

[11] = Stability as a function of pH; assay type: physicochemical; conditions: basic pH
Procedure: as §3

L3294 M. catarrhalis = assay: MIC, broth microdilution (CLSI); assay type: cell-based; conditions: Moraxella catarrhalis
Procedure: as §1

SMILES: COc1c(OC)c2c(=O)c3cc(C)n(C(CC4CN(C)C(=N)N4)C(=O)O)c(=O)c3c(=O)c2c2cc3c(=O)c4cc(O)cc(O)c4c(=O)c3c(OC)c12 (stereo not drawn) [compound 1, 2-(10,12-Dihydroxy-6,7,8-trimethoxy-3-methyl-1,5,9,14,16-pentaoxo-5,9,14,16-tetrahydro-1H-2-aza-hexaphen-2-yl)-3-(2-imino-1-methyl-imidazolidin-4-yl)-propionic acid]
- MIC (L100 S. aureus ATCC6538P; L100 S. aureus ATCC6538P, cation-adjusted Mueller Hinton Broth, 35°C, 18-24 hours, read-out: MIC): 0.03 µg/mL (≈ 0.0422 µM)
- MIC (L1400 S. aureus HA-MRSA; L1400 S. aureus HA-MRSA, cation-adjusted Mueller Hinton Broth, 35°C, 18-24 hours, read-out: MIC): 0.03 µg/mL (≈ 0.0422 µM)
- MIC (L1577 S. epidermidis; L1577 S. epidermidis, cation-adjusted Mueller Hinton Broth, 35°C, 18-24 hours, read-out: MIC): 0.06 µg/mL (≈ 0.0844 µM)
- MIC ([1]; L1729 S. haemolyticus MDR, cation-adjusted Mueller Hinton Broth, 35°C, 18-24 hours, read-out: MIC): 0.016 µg/mL (≈ 0.0225 µM)
- MIC (L1730 S. haemolyticus; L1730 S. haemolyticus, cation-adjusted Mueller Hinton Broth, 35°C, 18-24 hours, read-out: MIC): 0.03 µg/mL (≈ 0.0422 µM)
- MIC [2]: 0.06 µg/mL (≈ 0.0844 µM)
- MIC (L44 S. pneumoniae; L44 S. pneumoniae, Todd Hewitt medium, 35°C, 18-24 hours, read-out: MIC): 16 µg/mL (≈ 22.5 µM)
- MIC (L47 E. coli; L47 E. coli, cation-adjusted Mueller Hinton Broth, 35°C, 18-24 hours, read-out: MIC): > 256 µg/mL
- MIC (L49 S. pyogenes C203; L49 S. pyogenes C203, Todd Hewitt medium, 35°C, 18-24 hours, read-out: MIC): 16 µg/mL (≈ 22.5 µM)
- MIC (L559 E. faecalis; L559 E. faecalis, cation-adjusted Mueller Hinton Broth, 35°C, 18-24 hours, read-out: MIC): 0.03 µg/mL (≈ 0.0422 µM)
- MIC (L560 E. faecalis VanA; L560 E. faecalis VanA, cation-adjusted Mueller Hinton Broth, 35°C, 18-24 hours, read-out: MIC): 0.03 µg/mL (≈ 0.0422 µM)
- MIC (L568 E. faecium; L568 E. faecium, cation-adjusted Mueller Hinton Broth, 35°C, 18-24 hours, read-out: MIC): 2 µg/mL (≈ 2.81 µM)
- MIC (L569 E. faecium VanA; L569 E. faecium VanA, cation-adjusted Mueller Hinton Broth, 35°C, 18-24 hours, read-out: MIC): 2 µg/mL (≈ 2.81 µM)
- MIC (L819 S. aureus Smith; L819 S. aureus Smith, cation-adjusted Mueller Hinton Broth, 35°C, 18-24 hours, read-out: MIC): 0.06 µg/mL (≈ 0.0844 µM)
- MIC [3]: 0.015 µg/mL (≈ 0.0211 µM)
- MIC [4]: 8 µg/mL (≈ 11.3 µM)
- MIC [5]: 2 µg/mL (≈ 2.81 µM)
- MIC (VA645601 B. clausii): 0.125 µg/mL (≈ 0.176 µM)
- MIC [6]: 0.06 µg/mL (≈ 0.0844 µM)
- MIC (VA827901 B. cereus): 0.06 µg/mL (≈ 0.0844 µM)
- MIC (L145 C. albicans; L145 C. albicans, RPMI 1640 medium, 10^4 CFU/ml, 35°C, 18-24 hours, read-out: MIC): 256 µg/mL (≈ 360 µM)
- toxicity against human cells ([7]; Hela cells, the highest concentration tested): no toxicity
- inhibit replication of HeLa cell [7]: does not inhibit
- toxicity against human cells [8]: no toxicity
- toxicity against human cells [9]: no toxicity
- hemolytic activity (human erythrocytes): no hemolytic activity
- ED50 [10]: 15 mg/kg
- Solubility (Solubility; acetone): scarcely soluble
- Solubility (Solubility; at basic pH): more soluble
- Solubility (Solubility; dimethylformamide (DMF)): soluble
- Solubility (Solubility; methanol (MeOH)): scarcely soluble
- Solubility (Solubility; most low to medium- polarity organic solvents): poor
- Solubility (Solubility; organic solvent or mixture, dimethylsulfoxide (DMSO), read-out: Solubility): > 50000 µg/mL
- Solubility (Solubility; organic solvent or mixture, in alcohols, read-out: Solubility): 5000 to 10000 µg/mL (≈ 7040 to 14100 µM)
- Solubility (Solubility; water from acidic to neutral pH): poor
- stable up to pH [11]: 8-9

SMILES: COc1c(OC)c2c(=O)c3cc(C)n(C(CC4CN(C)C(=N)N4)C(=O)O)c(=O)c3c(=O)c2c2cc3c(=O)c4cc(O)cc(O)c4c(=O)c3c(O)c12 (stereo not drawn) [compound 2, 2-(8,10,12-Trihydroxy-6,7-dimethoxy-3-methyl-1,5,9,14,16-pentaoxo-5,9,14,16-tetrahydro-1H-2-aza-hexaphen-2-yl)-3-(2-imino-1-methyl-imidazolidin-4-yl)-propionic acid]
- MIC (L100 S. aureus ATCC6538P; ATCC6538P): 0.03 µg/mL (≈ 0.0431 µM)
- MIC (L1400 S. aureus HA-MRSA; MRSA): 0.03 µg/mL (≈ 0.0431 µM)
- MIC (L1577 S. epidermidis): 0.03 µg/mL (≈ 0.0431 µM)
- MIC [1]: 0.06 µg/mL (≈ 0.0861 µM)
- MIC (L1730 S. haemolyticus): 0.03 µg/mL (≈ 0.0431 µM)
- MIC (L3294 M. catarrhalis): 64 µg/mL (≈ 91.9 µM)
- MIC (L44 S. pneumoniae): 32 µg/mL (≈ 45.9 µM)
- MIC (L47 E. coli): > 512 µg/mL
- MIC (L49 S. pyogenes C203): 1 µg/mL (≈ 1.44 µM)
- MIC (L559 E. faecalis): 0.03 µg/mL (≈ 0.0431 µM)
- MIC (L560 E. faecalis VanA): 0.03 µg/mL (≈ 0.0431 µM)
- MIC (L568 E. faecium): 0.125 µg/mL (≈ 0.179 µM)
- MIC (L569 E. faecium VanA): 0.5 µg/mL (≈ 0.718 µM)
- MIC (L819 S. aureus Smith): 0.015 µg/mL (≈ 0.0215 µM)
- MIC (L145 C. albicans): > 512 µg/mL

Reference: patent EP3898610B1, “NOVEL AZA-HEXAPHENE ANTIBIOTIC COMPOUNDS” (Fondazione Istituto Insubrico di Ricerca per la Vita, priority 2018, dated 2020)
